Laboratory results from patent publication US10004809B2, “Precise delivery of therapeutic agents to cell mitochondria for anti-cancer therapy” (UNIVERSITY OF GEORGIA RESEARCH FOUNDATION, INC., priority 2013, dated 2018).

Legend:
Type in all cases: cell-based, Human
PC3 cells [1] = assay: JC-1 assay of mitochondrial membrane potential (Δψm), live cell imaging; conditions: for JC-1 Green:Red fluorescence ratio: 6 h
Excerpt: An early indication of the initiation of cellular apoptosis is the collapse in the electrochemical gradient across the mitochondrial membrane, as measured by the change in the Δψm (Perry et al., BioTechniques 50:98-115, 2011). […] The potential-sensitive color shift is due to the concentration dependent formation of red fluorescent “J aggregates.” Mitochondrial depolarization is indicated by an increase in the green/red fluorescence intensity ratio. Live cell imaging of prostate cancer (PCa) PC3 cells treated with Na-DCA (150 μM), TPP-DCA (150 μM), or MITO-DCA (50 μM), followed by staining with JC-1, and a comparative analysis of the JC-1 green/red fluorescence ratio from PC3 cells in response to these three DCA analogues are represented in FIG. 3. […] Quantification of fluorescence intensities was carried out using ImageJ and the corrected total cell fluorescence (CTCF) values are represented as histograms (FIG. 3).
PC3 cells were cultured on a live cell imaging glass bottom dish at a density of 1×10^6 cells/mL and allowed to grow overnight at 37° C. Cells were treated with 150 μM Na-DCA, 150 μM TPP-DCA, and 50 μM MITO-DCA for 6 h at 37° C. A solution of JC-1 reagent (10 μg/mL in RPMI) was added and incubation was carried out at 37° C. for 20 min. The cells were washed 3 times with PBS, and live cell imaging was performed in phenol red free RPMI media.

DU145 cells = assay: MTT cytotoxicity assay; conditions: for IC50: MTT, 72 h incubation
Protocol: (§1) The cytotoxic behaviors of MITO-DCA, TPP-DCA, Na-DCA, and TPP-Tris-(OH)3 were evaluated using the MTT assay against PC3, DU145, LNCaP, and MSC cells. Cells (2000 cells/well for PC3, DU145, and MSC cells; 5000 cells/well for LNCaP) were seeded on a 96-well plate in 100 μL of desired medium and incubated for 24 h. The cells were treated with different DCA compounds and TPP-Tris-(OH)3 at varying concentrations and incubated for 72 h at 37° C. The cells were then treated with 20 μL of MTT (5 mg/mL in PBS) for 5 h. The medium was removed, the cells were lysed with 100 μL of DMSO, and the absorbance of the purple tormazan was recorded at 550 nm using a Bio-Tek Synergy HT microplate reader. Each well was performed in triplicate. All experiments were repeated three times. Cytotoxicity was expressed as mean percentage increase relative to the unexposed control±SD. Control values were set at 0% cytotoxicity or 100% cell viability. Cytotoxicity data (where appropriate) was fitted to a sigmoidal curve and a three parameters logistic model used to calculate the IC50, which is the concentration of chemotherapeutics causing 50% inhibition in comparison to untreated controls. The mean IC50 is the concentration of agent that reduces cell growth by 50% under the experimental conditions and is the average from at least three independent measurements that were reproducible and statistically significant. The IC50 values were reported at ±99% confidence intervals. This analysis was performed with GraphPad Prism (San Diego, U.S.A).

LNCaP cells = assay: MTT cytotoxicity assay; conditions: for IC50: MTT, 72 h incubation
Protocol: as §1

PC3 cells [2] = assay: MTT cytotoxicity assay; conditions: for IC50: MTT, 72 h incubation
Protocol: as §1

MSC cells [3] = assay: MTT cytotoxicity assay on normal cells; conditions: 72 h
Protocol: as §1

MSC cells [4] = assay: Annexin V/PI apoptosis detection by flow cytometry
Protocol: In order to determine whether the enhanced activity of MITO-DCA upon targeting this compound to the mitochondria of cells was due to apoptosis rather than necrosis, an ALEXA FLUOR™ 488-Annexin-V and propidium iodide (PI) cell staining in PC3 and MSC cells was carried out and data were analyzed using flow cytometry (FIG. 4B). As controls, etoposide treated cells were used as early apoptosis population and H2O2 treated cells were marked as late apoptotic or necrotic population. […] There were no late apoptotic or necrotic cells observed with these compounds.
PC3 and MSC cells were seeded at a density of 1×10^6 cells/mL on each well of a six well plate and allowed to grow overnight. Cells were treated with 50 μM Na-DCA, 150 μM TPP-DCA, and 150 μM MITO-DCA for 12 h at 37° C. As positive controls, etoposide (100 μM, incubation time: 12 h) for apoptosis and H2O2 (1 mM, incubation time: 45 min) for necrosis were used. The cells were trypsinized, repeatedly washed, and centrifuged at 1,800 RPM for 3 min, and the supernatants were discarded. Cell density was determined and cells were resuspended in 1× annexin-binding buffer to ˜1×10^6 cells/mL preparing a sufficient volume to have 100 µL per assay. To 100 μL of cell suspension, 5 μL ALEXA FLUOR™ 488 annexin V and 1 µL 100 μg/mL PI working solution were added and incubated for 15 min at room temperature. After the incubation period, 400 μL 1× annexin-binding buffer was added to each sample, samples were gently mixed keeping the samples on ice and the samples were analyzed on the flow cytometer immediately.

PC3 cells [5] = assay: CELLTITER-GLO luminescent intracellular ATP quantification; conditions: for Increase in intracellular ATP levels: 3 h; for ATP level and cell growth at high concentration: PC3 cells, 6 h
Protocol: A decrease in cancer cell lactate levels is expected to be associated with an increase in ATP production. Intracellular ATP levels in PC3, LNCaP, and MSC cells treated with MITO-DCA (20 μM), TPP-DCA (60 μM), and Na-DCA (60 μM) were measured.
PC3 or MSC cells were plated at a density of 10,000 cells per well in 96-well plates compatible with the luminometer used in 100 μL media. […] Control wells containing medium without cells were prepared to obtain a value for background luminescence. Plates were then equilibrated at room temperature for ˜30 min. A volume of CELLTITER-GLO™ reagent equal to the volume of cell culture medium present in each well was added, this mixtures were well mixed for 2 min using a shaker to induce cell lysis. The plates were allowed to incubate at room temperature for 10 min to stabilize luminescent signal. Luminescent was recorded using a plate reader. ATP quantification was carried out from a standard curve using ATP disodium salt hydrate.

Row | SMILES | Change in Δψm (JC-1 imaging) (PC3 cells [1]; 50 μM) | JC-1 Green:Red fluorescence ratio (PC3 cells [1]; 50 μM) | Activity relative to Na-DCA (DU145 cells; DU145 cells, from IC50) | IC50 (DU145 cells) | Activity relative to Na-DCA (LNCaP cells; LNCaP cells, from IC50) | IC50 (LNCaP cells) | IC50 (PC3 cells [2]) | Activity relative to Na-DCA (PC3 cells [2]; PC3 cells, from IC50) | Toxicity in normal MSC cells (MSC cells [3]) | Apoptosis (annexin V/PI) (MSC cells [4]; 50 μM) | Increase in intracellular ATP levels (PC3 cells [5]; 20 μM) | ATP level and cell growth at high concentration (PC3 cells [5]; 50 μM) | Change in Δψm (JC-1 imaging) (PC3 cells [1]; 150 μM) | JC-1 Green:Red fluorescence ratio (PC3 cells [1]; 150 μM) | Times less active than MITO-DCA (DU145 cells; DU145 cells, from IC50) | Times less active than MITO-DCA (LNCaP cells; LNCaP cells, from IC50) | Times less active than MITO-DCA (PC3 cells [2]; PC3 cells, from IC50) | Apoptosis (annexin V/PI) (MSC cells [4]; 150 μM) | Increase in intracellular ATP levels (PC3 cells [5]; 60 μM) | ATP level and cell growth at high concentration (PC3 cells [5]; 150 μM)
1 | O=C(CCCCC[P+](c1ccccc1)(c1ccccc1)c1ccccc1)NC(COC(=O)C(Cl)Cl)(COC(=O)C(Cl)Cl)COC(=O)C(Cl)Cl.[Br-] [MITO-DCA] | induced marked changes in Δψm | 3.96±0.96 | three orders of magnitude more activity | 42 ± 2 µM | three orders of magnitude more activity | 30 ± 6 µM | 17 ± 1 µM | three orders of magnitude more active | did not show any toxic effects | did not undergo apoptosis | ~44% | ATP reduction and cell growth inhibition | – | – | – | – | – | – | – | –
2 | O=C(OCCC[P+](c1ccccc1)(c1ccccc1)c1ccccc1)C(Cl)Cl.[Br-] [TPP-DCA] | – | – | – | 468 ± 49 µM | – | 302 ± 37 µM | 68 ± 1 µM | – | did not show any toxic effects | – | – | – | showed red fluorescence in most cells | 0.49±0.09 | ~10 times | ~10 times | ~4 times | did not undergo apoptosis | did not show any significant increase | ATP reduction and cell growth inhibition
